Laboratory results reported in PMC3003444 (Chemistry & biology, 2010).
≈ marks a conversion by molar mass, not a printed value. Like-named read-outs stand apart in the source and are kept apart here. Marks after values point to notes of the source that are not given here.

Assays:
[1] = test system: Staphylococcus epidermidis; assay: microbe, parasite or virus in culture; format: cell-based
[2] = test system: Staphylococcus haemolyticus; assay: microbe, parasite or virus in culture; format: cell-based
Rhodococcus opacus = assay: microbe, parasite or virus in culture; format: cell-based
[3] = test system: Corynebacterium glutamicum; assay: microbe, parasite or virus in culture; format: cell-based
Helicobacter pylori = assay: microbe, parasite or virus in culture; format: cell-based
Yersinia pestis = assay: microbe, parasite or virus in culture; format: cell-based
Chlamydia trachomatis = assay: microbe, parasite or virus in culture; format: cell-based
Streptococcus pneumoniae = assay: microbe, parasite or virus in culture; format: cell-based
Streptococcus pyogenes = assay: microbe, parasite or virus in culture; format: cell-based
Lactococcus lactis = format: cell-based
[4] = test system: Corynebacterium efficiens; assay: microbe, parasite or virus in culture; format: cell-based
Staphylococcus aureus = format: cell-based; details: S. aureus mutant, Pro^29 replaced by Ser
Brevibacillus brevis = assay: microbe, parasite or virus in culture; format: cell-based
Bacillus subtilis = assay: microbe, parasite or virus in culture; format: cell-based
Streptococcus agalactiae = assay: microbe, parasite or virus in culture; format: cell-based
Escherichia coli = assay: microbe, parasite or virus in culture; format: cell-based
Pseudomonas aeruginosa = assay: microbe, parasite or virus in culture; format: cell-based
Klebsiella pneumoniae = assay: microbe, parasite or virus in culture; format: cell-based
Lactobacillus gasseri = assay: microbe, parasite or virus in culture; format: cell-based
[5] = test system: Lactobacillus acidophilus; assay: microbe, parasite or virus in culture; format: cell-based
Lactobacillus plantarum = assay: microbe, parasite or virus in culture; format: cell-based; details: Lactiplantibacillus plantarum
Clostridium difficile = assay: microbe, parasite or virus in culture; format: cell-based; details: Clostridioides difficile
Clostridium bolteae = assay: microbe, parasite or virus in culture; format: cell-based; details: Enterocloster bolteae
Clostridium perfringens = assay: microbe, parasite or virus in culture; format: cell-based
Bacteroides fragilis = assay: microbe, parasite or virus in culture; format: cell-based
Prevotella copris = assay: microbe, parasite or virus in culture; format: cell-based
Lactobacillales = assay: organism not typed; format: cell-based
[6] = test system: Clostridia and Bacteriodetes; assay: MIC, Clostridia and Bacteriodetes; format: cell-based
[7] = test system: E. coli strains harboring the indicated amino acid at SPase residue 84
Enterococcus faecalis = details: cited from earlier work
[8] = test system: E. coli strains harboring the indicated amino acid at SPase residue 84; assay: MIC for E. coli strains with mutant SPase residue 84; details: for MIC: Escherichia coli

## CCCCCCCCCCCCCCCC(=O)N(C)[C@H](CO)C(=O)N[C@H](C)C(=O)NCC(=O)N(C)[C@@H]1C(=O)N[C@@H](C)C(=O)N[C@H](C(=O)O)Cc2ccc(O)c(c2)-c2cc1ccc2O [arylomycin C16]
[1]; Staphylococcus epidermidis
  MIC: 0.25 µg/mL (≈ 0.284 µM)
[1]; resistant mutants (remainder), SpsIB Ser to Pro at position 31
  elevated MIC compared to the wild type strain: greater than 256 fold
[1]; resistant mutants (~75%), SpsIB Ser to Pro at position 29
  elevated MIC compared to the wild type strain: 32 fold
[2]
  MIC: 2 µg/mL (≈ 2.27 µM)
Rhodococcus opacus
  MIC: 2 µg/mL (≈ 2.27 µM)
[3]
  MIC: 2 µg/mL (≈ 2.27 µM)
Helicobacter pylori
  MIC: 4 µg/mL (≈ 4.54 µM)
Yersinia pestis
  MIC: 4 µg/mL (≈ 4.54 µM)
Chlamydia trachomatis
  MIC: 6 µg/mL (≈ 6.81 µM)
Streptococcus pneumoniae
  MIC: 16 µg/mL (≈ 18.2 µM)
Streptococcus pyogenes
  MIC: 16 µg/mL (≈ 18.2 µM)
Lactococcus lactis
  MIC: 16, >128 ^a μg/ml
[4]
  MIC: > 64 µg/mL
Staphylococcus aureus
  sensitivity of Pro to Ser SPase mutant strain: high degree of sensitivity
Brevibacillus brevis
  MIC: > 64 µg/mL
Bacillus subtilis
  MIC: > 128 µg/mL
Streptococcus agalactiae
  MIC: > 128 µg/mL
Escherichia coli
  MIC: > 128 µg/mL
Pseudomonas aeruginosa; P. aeruginosa Pro to Ser mutant
  decrease of MIC on permeabilizing with polymyxin B nonapeptide: ≤ 4 fold
Pseudomonas aeruginosa; P. aeruginosa mutant, Pro^84 replaced by Ser
  sensitivity of Pro to Ser SPase mutant strain: high degree of sensitivity
Pseudomonas aeruginosa; Pseudomonas aeruginosa
  MIC: > 128 µg/mL
Klebsiella pneumoniae
  MIC: > 128 µg/mL
Lactobacillus gasseri
  MIC: > 128 µg/mL
[5]
  MIC: > 128 µg/mL
Lactobacillus plantarum
  MIC: > 128 µg/mL
Clostridium difficile
  MIC: > 16 µg/mL
Clostridium bolteae
  MIC: > 16 µg/mL
Clostridium perfringens
  MIC: > 16 µg/mL
Bacteroides fragilis
  MIC: > 16 µg/mL
Prevotella copris
  MIC: > 16 µg/mL
Lactobacillales
  MIC: > 64 µg/mL
[6]
  MIC: > 16 µg/mL
[7]
  decrease of MIC on permeabilizing with polymyxin B nonapeptide: ≤ 4 fold
Enterococcus faecalis
  MIC: >64 ^b μg/ml
[8]; E. coli mutant, Pro^84 replaced by Ser
  sensitivity of Pro to Ser SPase mutant strain: high degree of sensitivity
[8]; His at SPase residue 84 (temperature sensitive phenotype)
  MIC: 4 µg/mL (≈ 4.54 µM)
[8]; Phe at SPase residue 84 (temperature sensitive phenotype)
  MIC: 2 µg/mL (≈ 2.27 µM)
[8]; Pro at SPase residue 84, detection limit 256 μg/ml
  MIC: > 256 µg/mL
[8]; read-out: MICs, all of the other amino acids (not Pro) at SPase residue 84
  MIC: ≤ 16 µg/mL
